Results: patent US11185488B2, “Skin external preparation composition for moisturizing skin containing 1,2,3,4,6-penta-O-galloyl-β-D-glucose” (AMOREPACIFIC CORPORATION, priority 2017, dated 2021)

What was measured:
Type in all cases: cell-based
[1] = tested on: filaggrin; assay: Gene expression level of filaggrin (RNA separation and RT-PCR); conditions: neonatal keratinocytes, 1 ppm, 2 days; for Increase in filaggrin expression(%): corrected to RPL13A
Description: Neonatal keratinocytes (obtained from Lonza) was dispensed into a 60 mm cell culture dish at a density of 1.25×10^6 cells/dish using KGM medium, and then cultured at 37° C. in a 5% CO2 incubator up to about 80% confluency. Then, eight compounds including PGG from soybean, green tea, ginseng, and other natural products were selected as test substances (Table 1), and the cells were treated with each of these compounds at 1 ppm and cultured for 2 days. After the culture, the medium was removed, and 1 ml of Trizol (Invitrogen) was added, and mRNA was isolated according to an RNA isolation method of Invitrogen. mRNA was quantified at 260 nm using an ultraviolet detector (Hewlett Packard), and RT-PCR (Reverse Transcription-Polymerase Chain Reaction) was performed. For genetic analysis of each sample, correction was performed based on the complementary gene, RPL13A, and the expression level of filaggrin for each sample is shown in Table 1 below.

[2] = tested on: involucrin (IVL); assay: Gene increase experiment for involucrin (IVL) (RNA isolation and RT-PCR); conditions: keratinocytes, 4 days, corrected to RPLP0, FIG. 2
Description: (§1) Neonatal keratinocytes was dispensed into a 60 mm cell culture dish at a density of 1.25×10^6 cells/dish using KGM medium, and then cultured at 37° C. in a 5% CO2 incubator up to about 80% confluency. Then, the keratinocytes were treated with 0.2 ppm or 1 ppm of PGG, cultured for 4 days. After the culture, the medium was removed and 1 ml of Trizol (Invitrogen) was added thereto, and mRNA was isolated according to the RNA isolation method of Invitrogen. After quantifying mRNA at 260 nm using a CV detector (HEWLETT PACKARD), RT-PCR (Reverse transcription-polymerase chain reaction) was performed by using the primers of LOR and IVL (LOR-HS01894962_s1, IVL HS00846307_s1, respectively, both of which were obtained from Life Technologies). For genetic analysis of each sample, the correction was performed based on the complementary gene, RPLP0, and the results are shown in Table 2 below.

[3] = tested on: Neonatal keratinocytes; assay: Evaluation of cytotoxicity of PGG (cell viability); conditions: PGG 0, 1, 2, 4 ppm, cultured 4 days, FIG. 1
Description: Neonatal keratinocytes (obtained from Lonza) was dispensed into a 60 mm cell culture dish at a density of 1.25×10^6 cells/dish using KGM medium, and then cultured at 37° C. in a 5% CO2 incubator up to about 80% confluency. Then, the cells were treated with PGG at concentrations of 0 ppm, 1 ppm, 2 ppm, and 4 ppm, cultured for 4 days, and then the viability of the cells was confirmed.

[4] = tested on: loricrin (LOR); assay: Gene increase experiment for loricrin (LOR) (RNA isolation and RT-PCR); conditions: keratinocytes, 4 days, corrected to RPLP0, FIG. 2
Description: as §1

| SMILES | Increase in filaggrin expression(%) [1] [%] | also measured |
| --- | --- | --- |
| O=c1c(-c2ccc(O)cc2)coc2cc(O)c(O)cc12 [6,7,4′-trihydroxyisoflavone] | 103 |  |
| O=c1c(-c2ccc(O)c(O)c2)coc2cc(O)ccc12 [7,3′,4′-trihydroxyisoflavone] | 110 |  |
| Oc1cc(O)c2c(c1)O[C@H](c1ccc(O)c(O)c1)[C@H](O)C2 [(−)-Epicatechin(EC), (−)-Epicatechin] | 108 |  |
| C[C@]12C[C@@H](O)[C@@H]3C[C@@]1(O[C@@H]1O[C@H](CO)[C@@H](O)[C@H](O)[C@H]1O)[C@@]3(COC(=O)c1ccccc1)C(=O)O2 [Albiflorin] | 107 |  |
| O=c1c(O[C@@H]2O[C@H](CO)[C@@H](O)[C@H](O)[C@H]2O)c(-c2ccc(O)cc2)oc2cc(O)cc(O)c12 [Astragalin] | 105 |  |
| O=C(OC[C@H]1O[C@@H](OC(=O)c2cc(O)c(O)c(O)c2)[C@H](OC(=O)c2cc(O)c(O)c(O)c2)[C@@H](OC(=O)c2cc(O)c(O)c(O)c2)[C@@H]1OC(=O)c1cc(O)c(O)c(O)c1)c1cc(O)c(O)c(O)c1 [PGG, 1,2,3,4,6-penta-O-galloyl-β-D-glucose] | 229 | expression level of involucrin gene compared to control group ([2]; 0.2 ppm): three-fold or more increase; increase of involucrin gene compared to control group ([2]; 1 ppm): 5 times; rate of increase in the expression of filaggrin versus control group [1]: more than 2 times; cell viability [3]: no significant difference in cell viability; expression level of loricrin gene compared to control group ([4]; 0.2 ppm): almost no difference compared to the control group; increase of loricrin gene compared to control group ([4]; 1 ppm): ≥ 2 times |
| C[C@@]12C[C@@]3(O)O[C@@H](O1)[C@]1(COC(=O)c4ccccc4)[C@H]3C[C@@]12O[C@@H]1O[C@H](CO)[C@@H](O)[C@H](O)[C@H]1O [Paeoniflorin] | 116 |  |
| COc1cc([C@H]2OC[C@H]3[C@@H]2CO[C@@H]3c2cc(OC)c(O)c(OC)c2)cc(OC)c1O [Syringaresinol] | 103 |  |
